# A melting point compilation (Tetko et al.; mined from patent text by program, amines drawn as free bases though some values may be those of a salt)
row,Compound,melting point
1,CCCCc1nc2c(C)nc(C)cc2n1-c1ccc(CCOC(=O)NS(=O)(=O)c2ccc(C)cc2)cc1,162 °C
2,Cc1cccc(N(c2ccccc2)c2ccc(-c3ccc(-c4ccc(N(c5ccccc5)c5cccc(C)c5)cc4)cc3)cc2)c1,189 to 190 °C
3,CN(C)c1ccc(C(=O)C=Cc2ccc([N+](=O)[O-])cc2)cc1,198 to 200 °C
4,CSc1ccc(-c2nn(Cc3ccccc3)c(=O)cc2-c2ccccc2)cc1,157 to 158 °C
5,COc1ccc(SCCCCCCCC(=O)O)cc1,66 to 68 °C
6,Cc1nc(N2CCc3ccccc3CC2)c(C#N)c(=O)n1N(CC(F)(F)F)C(=O)OC(C)(C)C,86 to 88 °C
7,Clc1c2nc3ccccc3c-2[nH]c2ccccc12,220 to 222 °C
8,CN1c2ccncc2NC(c2ccccc2)c2cccn21 (configuration not stated),200 to 203 °C
9,O=C(OCC1OC(Oc2ccc([N+](=O)[O-])cc2)C(OC(=O)c2ccccc2)C(OC(=O)c2ccccc2)C1O)c1ccccc1 (configuration not stated),180 to 181 °C
10,O=C(O)c1ccc(-c2nn(-c3ccccc3C(=O)O)c3ccc([N+](=O)[O-])cc23)cc1,348 to 350 °C
11,CCOC(=O)Cn1nnnc1C(=O)OCC,26 to 29.5 °C
12,CNC(=NS(C)(=O)=O)NCCCSc1ncc(Br)c(NC(N)=NCC(F)(F)F)n1,166 to 167 °C
13,O=[N+]([O-])c1ccc(CNc2ccccn2)cc1,131 to 132 °C
14,NS(=O)(=O)c1cccc2nonc12,157 to 159 °C
15,Cc1ccc(-n2nc(C(=O)CCCO[N+](=O)[O-])cc2-c2ccc(S(C)(=O)=O)cc2)cc1,107 to 109 °C
16,Cc1cc(C(F)(F)F)nc(-c2ccc(O)cc2)n1,131 to 132 °C
17,COC(=O)C1=NNC(C)=C(C(=O)OC)C1c1ccc(C)cc1 (configuration not stated),180 °C
18,CC(O)(Cc1cncs1)c1ccc(Cl)cc1Cl (configuration not stated),164 °C
19,CC(C)Nc1cc(-c2nc[nH]n2)nc(Cl)c1-c1c(F)cccc1Cl,152 °C
20,NC(=O)N(O)Cc1sccc1Br,138 to 140 °C
21,CCOC(=O)c1c(-c2ccncc2)[nH]c(-c2ccncc2)c1-c1ccccc1,99 to 100 °C

row,Compound,melting point
1,CCCCCCCCNC(=O)C1=C(C(=O)Nc2cc(OC3CCCC3)c(Cl)cc2F)CCCC1,127 to 130 °C
2,O=S1(=O)NCN(C2CC2)c2c(Cl)cccc21,142 to 143 °C
3,OCCC(O)(c1ccc(Br)cc1)c1cccnc1 (configuration not stated),130 to 132 °C
4,COC(=O)CNC(=O)c1ccc(C(=O)NS(=O)(=O)c2ccc(CCNC(=O)CC3CCCCC3)cc2)cn1,178 to 179 °C
5,CCOC(=O)CC1Cc2ccc(O)cc2Cc2ccccc21 (configuration not stated),110 to 112 °C
6,COn1c(C)nn(-c2cc(F)c(C#N)cc2Cl)c1=O,102 °C
7,CC(=O)[C@@H]1C[C@H](C(=O)OC(C)(C)C)N(C(=O)CNC(=O)Nc2cccc(C)c2)[C@@H]1c1ccccc1 (racemic),100 °C
8,CC(C)(C)c1cc(C(=O)Nc2cc(Cl)c(Cl)cc2NC(=O)NC23CC4CC(CC(C4)C2)C3)cc(C(C)(C)C)c1O,203 to 207 °C
9,CCOC(=O)c1ccc2c(c1)CCC(Cc1cnc(N)s1)C2 (configuration not stated),150 to 153 °C
10,O=C1c2ccccc2C2(c3ccccc3)NCCCCN12 (configuration not stated),180 to 181 °C
11,O=[N+]([O-])c1cc(F)ccc1OCCCCl,143 °C
12,CC(C)c1cccc(C(C)C)c1NC(=S)C1c2ccccc2COc2ccc(Br)cc21 (configuration not stated),190 to 191 °C
13,COc1ccc(CCNC(=O)C(=O)O)cc1OC1CCCC1,123 to 124 °C
14,CCOC(=O)C1=CC2(CCC1S(=O)(=O)Nc1ccc(F)cc1Cl)OCCO2 (configuration not stated),117 to 119 °C
15,Cc1ccc(O)c(Cl)n1,190 to 191 °C
16,O=C(CCl)Nc1ccc2ncnc(Nc3cccc(I)c3)c2c1,> 300 °C
17,CC(C)(C(=O)c1cccnc1)c1ccc(Cl)cc1Cl,103 to 104 °C
18,C(=C\c1nc(COc2cccc(CCCCn3ccnc3)c2)co1)/c1ccccc1,75 to 76 °C
19,OC1(c2ccccc2)C(c2ccccc2)SC2=NCCCCN21 (configuration not stated),100 to 103 °C
20,O=C(OC1CCCCCCC1)c1cc2cc(CCl)ccc2oc1=O,169 to 170 °C
21,O=c1[nH][nH]c(=O)n1-c1c(F)cc(F)cc1F,221 to 222 °C

row,Compound,melting point
1,c1ccc(Nc2ccnc3[nH]cnc23)cc1,251 to 252 °C
2,Oc1ccc(Cl)c(Cl)c1OCC1CO1 (configuration not stated),92 to 94 °C
3,Cc1ccccc1Nc1nc2ccc(CC(=O)Nc3ccc(C4(CC(=O)O)CCCC4)cc3)cc2o1,123 to 126 °C
4,CC(O)Cn1cnc2c(=O)[nH]cnc21 (configuration not stated),244 to 250 °C
5,CS(=O)(=O)N=c1oc2ccccc2o1,161 to 163 °C
6,CCOC(=O)Cc1ccc(SCc2ccc(Cl)cc2C(=O)O)cc1,109 to 112 °C
7,CCCCNC(=O)Oc1cccc(NC(=O)CC(C)=O)c1,112 °C
8,O=C(O)COc1cc2ccsc2c(Cl)c1Cl,166 to 167 °C
9,CCCCOC(=O)C1CC(n2cnc3c(Cl)ncnc32)C(O)C1O (configuration not stated),104 to 106 °C
10,COc1cc(C(C)=O)ccc1OC1CCCC1,55 to 56 °C
11,CC(C)(C)NC(=S)Nc1cccc(SCCCC#N)n1,156 to 157 °C
12,Nc1cc(-c2ccoc2)ccc1Nc1cccc(C(=O)O)c1,211 to 212 °C
13,O=c1cc(-c2ccccc2)oc2ncccc12,103 to 105 °C
14,CCOC(=O)C(C)(C)c1ccc(OCc2ccccc2)cc1,54 to 55 °C
15,CN1CCc2ccn(S(=O)(=O)c3ccccc3)c2C(c2ccccc2)C1 (configuration not stated),115 to 116 °C
16,CC1(C)OC(=O)C(OC2CCCC2)=C1c1ccc(S(C)(=O)=O)cc1,121 to 122 °C
17,COc1cc(Nc2c(C#N)cnc3cc(-c4cc(CN5CCOCC5)c(CN5CCOCC5)s4)c(OC)cc23)c(Cl)cc1Cl,120 to 124 °C
18,Cc1cc2c(cc1-c1cccc(C=O)c1)C(C)(C)CCC2(C)C,104 to 105 °C
19,CCOC(=O)CCc1cccc(N)c1,132 to 135 °C
20,O=CN(O)C(CN1CCOCC1)CS(=O)(=O)c1ccccc1Oc1ccc(OC(F)(F)F)cc1 (configuration not stated),161 to 163 °C

# Results, then the molecule that gave them:
row,melting point,Compound
1,218 to 220 °C,COc1cc(C#N)c2nc(-c3ccc(OC)c(F)c3)cc(O)c2c1
2,> 260 °C,CN(C)CCN1C(=O)c2ccc3[nH]c4cc(O)c(O)cc4c3c2C1=O
3,70 to 72 °C,COc1ccc2c(c1)CCC(C=O)=C2C
4,72 to 75 °C,CN(C)C(=O)n1cc(C(=O)C2CSC(c3cccnc3)N2)c2ccc(Oc3ccc(F)cc3)cc21 (configuration not stated)
5,155 to 157 °C,CCC1c2[nH]c3ccccc3c2CC(C(=O)O)N1C(=S)SC (configuration not stated)
6,176 to 178 °C,CS(=O)(=O)NCCCn1c(CCCOc2ccccc2)nc2c(N)nc3ccccc3c21
7,178 to 180 °C,CC1(C)CC(=O)C=C(c2ccc(OCC(=O)O)c(Cl)c2Cl)C1
8,228 to 230 °C,OCc1nccc2c1[nH]c1ccccc12
9,166 °C,CC1(C)CC(=O)Nc2c(CCCN3CCN(c4nsc5ccccc45)CC3)cccc21
10,132 to 134 °C,CC(C)Cn1nnc2cc3c(=O)n(C(C)Cn4ncnn4)nnc3cc2c1=O (configuration not stated)
11,238 to 240 °C,CC(C)n1nc(-c2nc(C(N)=O)c(N)nc2-c2cccs2)ccc1=O
12,96 to 98 °C,CCC(=O)c1cc2c(Cl)cccc2s1
13,159 °C,CN(CS(C)(=O)=O)C(=O)Nc1ccc(Cl)c(Cl)c1
14,185 to 191 °C,CC1(C)C(=O)Nc2ccc(N)cc21
15,199 to 203 °C,CCn1cc(C(=O)O)c(=O)c2cc(F)c(-c3csc(CN)n3)c(F)c21
16,139 to 140 °C,CN(CC(=O)O)S(=O)(=O)c1csc2ccccc12
17,246 to 247 °C,Cc1ccc(C)c(CNc2c(NC(C)(C)C)c(=O)c2=O)c1
18,123 to 125 °C,COc1cc2c(cc1OC)CN(CCCc1ccc(NC(=O)c3cc(OC)c4ccccc4n3)cc1)CC2
19,148 to 150 °C,COC(=O)CNS(=O)(=O)c1c(C(=O)OC)sc2ccccc12
20,146 to 148 °C,COc1ccc(-c2ocnc2-c2cc(OC)c(Cl)c(OC)c2)cc1N

row,melting point,Compound
1,101 to 102 °C,Cc1cc(C)c(C(CO)c2ccc(C(C)C)cc2)c(O)c1 (configuration not stated)
2,156 to 157 °C,CCCC(=O)N(Cc1ccc(-c2ccccc2-c2nc(=O)o[nH]2)cc1)c1sc(C)cc1C(=O)OC
3,129 to 131 °C,CCN1c2ncc(CCc3cccc(N)c3)cc2C(=O)N(C)c2cccnc21
4,82 to 83 °C,COCCOCCOc1ccc(C2=N[C@@](C)(C(=O)O)CS2)c(O)c1
5,228 °C,O=C1NS(=O)(=O)c2cccc(O)c21
6,195 to 196 °C,CCCc1c(OCc2cccc(C=CC(=O)O)c2)ccc(C(C)=O)c1O
7,156 to 160 °C,CC1=C(CC(=O)N(C)O)c2cc(F)ccc2/C1=C\c1ccc(S(C)=O)cc1 (configuration not stated)
8,91 to 92 °C,CC(Cn1cc(Cl)c(-c2ccccc2Cl)n1)C(=O)N(C)C (configuration not stated)
9,193 to 194 °C,CC(C)N1Cc2cc(C(=O)O)ccc2N(CCN2CC=C(c3c[nH]c4cc(F)ccc34)CC2)S1(=O)=O
10,153 to 154 °C,CCN1c2ncc(CC(O)c3ccncc3)cc2C(=O)N(C)c2ccc(Cl)nc21 (configuration not stated)
11,169 °C,CC(C)CCNC(=O)c1ccccc1-c1ccccc1CN1C(=O)c2ccccc2C1=O
12,132 to 133 °C,CCCCc1cc(CCCc2c3c(nn2CCC)c(N)nc2ccccc23)no1
13,205 °C,Cc1c(CC=CN2CCN3c4cc(F)ccc4CCC3C2)cnn1-c1cc(N(C)C)nc(N)n1 (configuration not stated)
14,254 to 255 °C,CCCN(CCC)NNc1nc(C(=O)c2ccccc2O)nc(C(=O)c2ccccc2O)n1
15,214 to 217 °C,CCOC(=O)c1cn2c3c(c(F)c(F)cc3c1=O)OCC2CI (configuration not stated)
16,> 305 °C,Cc1noc(C)c1-c1ccnc2[nH]c(-c3cn(C)c4ccc(C(=O)O)cc34)cc12
17,217 to 219 °C,O=C(Nc1cc(Cl)c(O)c(Cl)c1)c1ccccc1O
18,262 to 263 °C,Cn1ncc(/C=C/C(=O)Nc2ccc(Cc3n[nH]c(=O)o3)cc2)c1-c1ccc(F)cc1
19,113 to 114 °C,CCOC(=O)C1=C(CF)NC(CF)=C(C(=O)OCC)C1c1cccc([N+](=O)[O-])c1
20,223 to 225 °C,Cc1cc(C)cc(-n2ncc(C(=O)O)c2C(N)=O)c1
